# Measurements from patent US20160002247A1, “8-SUBSTITUTED IMIDAZOPYRIMIDINONE DERIVATIVE HAVING AUTOTAXIN INHIBITORY ACTIVITY” (THE UNIVERSITY OF TOKYO, priority 2013, published 2016).
# Biological target: T1, Human autotaxin enzyme (Homo sapiens, UniProt Q13822)
# T1 construct: purchased R&D System
# Assay: Evaluation of autotaxin inhibitor, Method C (Test Example 3): 18:0 Lyso PC, choline assay, Resorufin fluorescence
# Type: biochemical
# Conditions: Assay Method C (Test Example 3), human autotaxin, 18:0 Lyso PC substrate; read-out: Inhibitory Activity (autotaxin enzyme inhibitory activity, IC50 class)
# Summary of the method: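 Choline-coupled fluorescence readout (20 min, resorufin at 531/598 nm) followed a 2 h room-temperature reaction of human autotaxin with 18:0 Lyso PC substrate (added as 200 μM solution) in pH 7.5 Tris buffer containing MgCl2 and Triton X-100. Percent inhibition scaled to no-compound (0%) and no-enzyme (100%) wells and plotted versus concentration.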
row,Structure (SMILES),IC50
1,CCCCCn1c(N2CCC[C@H]2C(=O)N(C)CC(N)=O)cc(=O)n2cc(-c3ccc(Cl)cc3)nc12 [Compound 704],10 to 100 nM
2,CCCCCn1c(N2CCC[C@H]2C(=O)N[C@@H]2CNC(=O)C2)cc(=O)n2cc(-c3ccc(Cl)cc3)nc12 [Compound 705],100 to 1000 nM
3,CCCCCn1c(N2CCC[C@H]2C(=O)NCC(=O)C(C)(C)C)cc(=O)n2cc(-c3ccc(Cl)cc3)nc12 [Compound 706],10 to 100 nM
4,CCCCCn1c(N2CCC[C@H]2C(=O)N[C@H]2CCCCNC2=O)cc(=O)n2cc(-c3ccc(Cl)cc3)nc12 [Compound 707],100 to 1000 nM
5,CCCCCn1c(N2CCC[C@H]2C(=O)N[C@H]2CCNC2=O)cc(=O)n2cc(-c3ccc(Cl)cc3)nc12 [Compound 708],10 to 100 nM
6,CCCCCn1c(N2CCC[C@H]2C(=O)N[C@H](C)C(N)=O)cc(=O)n2cc(-c3ccc(Cl)cc3)nc12 [Compound 709],100 to 1000 nM
7,CCCCCn1c(N2CCC[C@H]2C(=O)NC2CCCNC2=O)cc(=O)n2cc(-c3ccc(Cl)cc3)nc12 (stereo partly drawn) [Compound 710],100 to 1000 nM
8,CCCCCn1c(N2CCC[C@H]2C(=O)N[C@@H]2CCCNC2=O)cc(=O)n2cc(-c3ccc(Cl)cc3)nc12 [Compound 711],100 to 1000 nM
9,CCCCCn1c(N2CCC[C@H]2C(=O)N[C@H]2CNC(=O)C2)cc(=O)n2cc(-c3ccc(Cl)cc3)nc12 [Compound 712],100 to 1000 nM
10,CCCCCn1c(N2CCN(C(=O)c3ccc(O)cc3)CC2)cc(=O)n2cc(-c3ccc(Cl)cc3)nc12 [Compound 713],10 to 100 nM
11,CCCCCn1c(NCC2(CO)COC2)cc(=O)n2cc(-c3ccc(Cl)cc3)nc12 [Compound 714],100 to 1000 nM
12,CCCCCn1c(N2CCC3(COC3)C2)cc(=O)n2cc(-c3ccc(Cl)cc3)nc12 [Compound 715],10 to 100 nM
13,CCCCCn1c(N2CCC3(CC2)COC3)cc(=O)n2cc(-c3ccc(Cl)cc3)nc12 [Compound 716],100 to 1000 nM
14,CCCCCn1c(OCC2(F)COC2)cc(=O)n2cc(-c3ccc(Cl)cc3)nc12 [Compound 718],10 to 100 nM
15,CCCCCn1c(OCC2(C)COC2)cc(=O)n2cc(-c3ccc(Cl)cc3)nc12 [Compound 719],100 to 1000 nM
16,CCCCCn1c(OCC2COC2)cc(=O)n2cc(-c3ccc(Cl)cc3)nc12 [Compound 720],100 to 1000 nM
17,CCCCCn1c(N2CCC[C@H]2C(=O)N[C@@H](Cc2c[nH]cn2)C(=O)O)cc(=O)n2cc(-c3ccc(Cl)cc3)nc12 [Compound 721],10 to 100 nM
18,CCCCCn1c(N2CCC[C@H]2C(=O)N[C@H](C(=O)O)C(C)(C)C)cc(=O)n2cc(-c3ccc(Cl)cc3)nc12 [Compound 722],< 10 nM
19,CCCCCn1c(N2CCC[C@H]2C(=O)N[C@H](C(=O)O)C(C)C)cc(=O)n2cc(-c3ccc(Cl)cc3)nc12 [Compound 723],< 10 nM
20,CCCCCn1c(N2CCC[C@H]2C(=O)N[C@@H](Cc2cccc3ccccc23)C(=O)O)cc(=O)n2cc(-c3ccc(Cl)cc3)nc12 [Compound 724],< 10 nM
21,CCCCCn1c(N2CCC[C@H]2C(=O)N[C@H](Cc2ccccc2)C(=O)O)cc(=O)n2cc(-c3ccc(Cl)cc3)nc12 [Compound 725],10 to 100 nM

row,Structure (SMILES),IC50
1,CCCCCn1c(N2CCC[C@H]2C(=O)N[C@@H](Cc2ccc3ccccc3c2)C(=O)O)cc(=O)n2cc(-c3ccc(Cl)cc3)nc12 [Compound 726],< 10 nM
2,CCCCCn1c(N2CCC[C@H]2C(=O)N[C@H](C(=O)O)C(c2ccccc2)c2ccccc2)cc(=O)n2cc(-c3ccc(Cl)cc3)nc12 [Compound 727],100 to 1000 nM
3,CCCCCn1c(N2CCC[C@H]2C(=O)N[C@@H](CCCC)C(=O)O)cc(=O)n2cc(-c3ccc(Cl)cc3)nc12 [Compound 728],< 10 nM
4,CCCCCn1c(N2CCC[C@H]2C(=O)N[C@@H](CC)C(=O)O)cc(=O)n2cc(-c3ccc(Cl)cc3)nc12 [Compound 729],< 10 nM
5,CCCCCn1c(N2CCC[C@H]2C(=O)N[C@@H](CC(C)(C)C)C(=O)O)cc(=O)n2cc(-c3ccc(Cl)cc3)nc12 [Compound 730],< 10 nM
6,CCCCCn1c(N2CCC[C@H]2C(=O)N[C@@H](CCC)C(=O)O)cc(=O)n2cc(-c3ccc(Cl)cc3)nc12 [Compound 731],< 10 nM
7,CCCCCn1c(N2CCC[C@H]2C(=O)N[C@H](C(=O)O)c2ccccc2)cc(=O)n2cc(-c3ccc(Cl)cc3)nc12 [Compound 732],< 10 nM
8,CCCCCn1c(N2CCC[C@H]2C(=O)N[C@@H](CC(C)C)C(=O)O)cc(=O)n2cc(-c3ccc(Cl)cc3)nc12 [Compound 733],< 10 nM
9,CCCCCn1c(N2CCC[C@H]2C(=O)N[C@@H](CC2CCCCC2)C(=O)O)cc(=O)n2cc(-c3ccc(Cl)cc3)nc12 [Compound 734],< 10 nM
10,CCCCCn1c(N2CCC[C@H]2C(=O)N[C@@H](CCc2ccccc2)C(=O)O)cc(=O)n2cc(-c3ccc(Cl)cc3)nc12 [Compound 735],< 10 nM
11,CCCCCn1c(N2CCC[C@H]2C(=O)N(CC(=O)O)Cc2ccccc2)cc(=O)n2cc(-c3ccc(Cl)cc3)nc12 [Compound 736],< 10 nM
12,CCCCCn1c(N2CCC[C@H]2C(=O)NC(C)C(=O)O)cc(=O)n2cc(-c3ccc(Cl)cc3)nc12 (stereo partly drawn) [Compound 737],< 10 nM
13,CCCCCn1c(N2CCC[C@H]2C(=O)N[C@H](CCCC)C(=O)O)cc(=O)n2cc(-c3ccc(Cl)cc3)nc12 [Compound 738],< 10 nM
14,CCCCCn1c(N2CCC[C@H]2C(=O)N[C@H](CC)C(=O)O)cc(=O)n2cc(-c3ccc(Cl)cc3)nc12 [Compound 739],< 10 nM
15,CCCCCn1c(N2CCC[C@H]2C(=O)N[C@@H](Cc2ccccc2)C(=O)O)cc(=O)n2cc(-c3ccc(Cl)cc3)nc12 [Compound 740],< 10 nM
16,O=C(O)[C@H](Cc1ccccc1)NC(=O)[C@@H]1CCCN1c1cc(=O)n2cc(-c3ccc(Cl)cc3)nc2n1Cc1ccccc1 [Compound 743],< 10 nM
17,O=C(O)CNC(=O)[C@@H]1CCCN1c1cc(=O)n2cc(-c3ccc(Cl)cc3)nc2n1Cc1ccccc1 [Compound 744],10 to 100 nM
18,O=C(O)[C@H](CCc1ccccc1)NC(=O)[C@@H]1CCCN1c1cc(=O)n2cc(-c3ccc(Cl)cc3)nc2n1Cc1ccccc1 [Compound 745],< 10 nM
19,CC(C)(C)[C@H](NC(=O)[C@@H]1CCCN1c1cc(=O)n2cc(-c3ccc(Cl)cc3)nc2n1Cc1ccccc1)C(=O)O [Compound 746],< 10 nM
20,CC(C)(NC(=O)[C@@H]1CCCN1c1cc(=O)n2cc(-c3ccc(Cl)cc3)nc2n1Cc1ccccc1)C(=O)O [Compound 747],10 to 100 nM
21,C[C@H](NC(=O)[C@@H]1CCCN1c1cc(=O)n2cc(-c3ccc(Cl)cc3)nc2n1Cc1ccccc1)C(=O)O [Compound 748],< 10 nM

row,Structure (SMILES),IC50
1,O=C(O)[C@H](Cc1ccccc1)NC(=O)[C@@H]1C[C@@H](O)CN1c1cc(=O)n2cc(-c3ccc(Cl)cc3)nc2n1Cc1ccccc1 [Compound 749],< 10 nM
2,O=C(O)CNC(=O)[C@@H]1C[C@@H](O)CN1c1cc(=O)n2cc(-c3ccc(Cl)cc3)nc2n1Cc1ccccc1 [Compound 750],10 to 100 nM
3,O=C(O)[C@H](CCc1ccccc1)NC(=O)[C@@H]1C[C@@H](O)CN1c1cc(=O)n2cc(-c3ccc(Cl)cc3)nc2n1Cc1ccccc1 [Compound 751],< 10 nM
4,CC(C)(C)[C@H](NC(=O)[C@@H]1C[C@@H](O)CN1c1cc(=O)n2cc(-c3ccc(Cl)cc3)nc2n1Cc1ccccc1)C(=O)O [Compound 752],< 10 nM
5,CC(C)(NC(=O)[C@@H]1C[C@@H](O)CN1c1cc(=O)n2cc(-c3ccc(Cl)cc3)nc2n1Cc1ccccc1)C(=O)O [Compound 753],< 10 nM
6,C[C@H](NC(=O)[C@@H]1C[C@@H](O)CN1c1cc(=O)n2cc(-c3ccc(Cl)cc3)nc2n1Cc1ccccc1)C(=O)O [Compound 754],< 10 nM
7,CCn1c(N2CCC[C@H]2C(=O)N[C@@H](Cc2ccccc2)C(=O)O)cc(=O)n2cc(-c3ccc(Cl)cc3)nc12 [Compound 755],100 to 1000 nM
8,CCn1c(N2CCC[C@H]2C(=O)NCC(=O)O)cc(=O)n2cc(-c3ccc(Cl)cc3)nc12 [Compound 756],100 to 1000 nM
9,CCn1c(N2CCC[C@H]2C(=O)N[C@@H](CCc2ccccc2)C(=O)O)cc(=O)n2cc(-c3ccc(Cl)cc3)nc12 [Compound 757],10 to 100 nM
10,CCn1c(N2CCC[C@H]2C(=O)N[C@H](C(=O)O)C(C)(C)C)cc(=O)n2cc(-c3ccc(Cl)cc3)nc12 [Compound 758],10 to 100 nM
11,CCn1c(N2CCC[C@H]2C(=O)NC(C)(C)C(=O)O)cc(=O)n2cc(-c3ccc(Cl)cc3)nc12 [Compound 759],10 to 100 nM
12,CCn1c(N2CCC[C@H]2C(=O)N[C@@H](C)C(=O)O)cc(=O)n2cc(-c3ccc(Cl)cc3)nc12 [Compound 760],10 to 100 nM
13,CCn1c(N2C[C@H](O)C[C@H]2C(=O)N[C@@H](Cc2ccccc2)C(=O)O)cc(=O)n2cc(-c3ccc(Cl)cc3)nc12 [Compound 761],100 to 1000 nM
14,CCn1c(N2C[C@H](O)C[C@H]2C(=O)NCC(=O)O)cc(=O)n2cc(-c3ccc(Cl)cc3)nc12 [Compound 762],> 1000 nM
15,CCn1c(N2C[C@H](O)C[C@H]2C(=O)N[C@@H](CCc2ccccc2)C(=O)O)cc(=O)n2cc(-c3ccc(Cl)cc3)nc12 [Compound 763],10 to 100 nM
16,CCn1c(N2C[C@H](O)C[C@H]2C(=O)N[C@H](C(=O)O)C(C)(C)C)cc(=O)n2cc(-c3ccc(Cl)cc3)nc12 [Compound 764],10 to 100 nM
17,CCn1c(N2C[C@H](O)C[C@H]2C(=O)NC(C)(C)C(=O)O)cc(=O)n2cc(-c3ccc(Cl)cc3)nc12 [Compound 765],100 to 1000 nM
18,CCn1c(N2C[C@H](O)C[C@H]2C(=O)N[C@@H](C)C(=O)O)cc(=O)n2cc(-c3ccc(Cl)cc3)nc12 [Compound 766],10 to 100 nM
19,Cn1c(N2CCC[C@H]2C(=O)N[C@@H](Cc2ccccc2)C(=O)O)cc(=O)n2cc(-c3ccc(Cl)cc3)nc12 [Compound 767],100 to 1000 nM
20,Cn1c(N2CCC[C@H]2C(=O)NCC(=O)O)cc(=O)n2cc(-c3ccc(Cl)cc3)nc12 [Compound 768],> 1000 nM
21,Cn1c(N2CCC[C@H]2C(=O)N[C@@H](CCc2ccccc2)C(=O)O)cc(=O)n2cc(-c3ccc(Cl)cc3)nc12 [Compound 769],10 to 100 nM
